Like-named read-outs stand apart in the source and are kept apart here. Where a SMILES comes first, the peptide text is derived from it. Where no end group is shown, it is not given here. [ ]: non-standard residue; d: D form.
Assays:
[1] = In vivo toxicity (survival, serum ALT); design: species or system ICR mice; settings: for serum ALT level compared with polymyxin B: day 1
Method: FIG. 7 is a set of graphs showing lower in vivo toxicity of HBcARD peptide D-150-177C in comparison with polymyxin B. At day 0, male ICR mice (5 mice/group) were ip. injected with different doses of D-150-177C peptide (20-80 mg/kg) and polymyxin B (50 mg/kg), respectively. (A) The survival rates of all groups were monitored for 7 days. (B) Serum samples collected from mice treated with D-150-177C and polymyxin B were determined for alanine aminotransferase activity (ALT) at day 1. The dash line represents the mean of ALT value (45 U/L) of ICR mice (Charles River Laboratories).
Using the sepsis mouse model, we examined the survival rates of ICR mice intraperitoneally (i.p.) injected with the 28-mer D-150-177C peptide (20-80 mg/kg body weight) and polymyxin B (a colistin-related compound) (50 mg/kg body weight). […] See FIG. 7, A. When the doses were increased to 60 and 80 mg/kg, survival rates of mice were decreased to 80% and 40%, respectively. See, FIG. 7, A. Liver injury can be detected by the serum ALT level.

[2] = tested on: P. aeruginosa; assay type: cell-based, Pseudomonas aeruginosa
Method: (§1) The antimicrobial activities of HBcARD peptides were tested using a number of bacterial strains, including Pseudomonas aeruginosa Migula strains (ATCC 27853, ampicillin-resistant and ATCC 9027, ampicillin-resistant), Klebsiella pneumoniae strain (ATCC 13884), Shigella dysenteriae Xen27 (Caliper Co.), Escherichia coli strain (ATCC 25922), Staphylococcus aureus subsp. strains (ATCC 25923, methicillin-resistantATCC 29213, methicillin-resistant and ATCC 19636, methicillin-resistant) and Acinetobacter baumannii strains (ATCC 17978, ATCC 17978 CR, ATCC19606, ATCC 19606 CR, TCGH 45530 and TCGH 46709). Clinical isolates TCGH 45530 and TCGH 46709 were obtained from Tzu-Chi Buddhist General Hospital (TCGH) in Taiwan, and were identified using the Vitek system (Biomerieux Vitek, Inc., Hazelwood, MO, USA). See Chang et al. (2012), J Microbiol Immunol Infect 45:37-42 doi:10.1016/j.jmii.2011.09.019.
(§2) L- and D-HBcARD peptides were purchased from Yao-Hong Biotechnology Inc. (Taipei, Taiwan). Antimicrobial activity was determined as described. See, Chen et al., 2013. Briefly, bacteria were grown in MH broth (Difco) to mid-logarithmic phase at 37° C., and were diluted to 10^6 CFU (colony formation unit)/ml in phosphate buffer (10 mM sodium phosphate and 50 mM sodium chloride, pH 7.2). Peptides were serially diluted in the same buffer. Fifty microliters (μl) of bacteria were mixed with fifty μl of peptides at varying concentrations, followed by incubation at 37° C. for 3 hours without shaking. At the end of incubation, bacteria were placed on Mueller-Hinton broth agar plates, and allowed to grow at 37° C. overnight for measurement of minimal bactericidal concentration (MBC).
(§3) All peptides were tested in triplicate.

[3] = tested on: K. pneumoniae; assay type: cell-based, Klebsiella pneumoniae
Method: as §1, §2, §3

[4] = tested on: A. baumannii; assay type: cell-based, Acinetobacter baumannii
Method: as §1, §2, §3

[5] = tested on: S. aureus; assay type: cell-based, Staphylococcus aureus
Method: as §1, §2, §3

[6] = tested on: S. aureus ATCC 19636; assay: Mouse sepsis model infected with S. aureus, in vivo protection efficacy; design: species or system ICR mice; settings: for survival (mice protected from death): S. aureus 4×10^6 CFU/mouse i.p., monitored 7 days; for in vivo protection efficacy, compared between peptides: mouse sepsis model, FIG. 8 (5 mg/kg) and FIG. 9 (different doses)
Method: To investigate the in vivo protection efficacy of the 37-mer L- and D-HBcARD peptides, we performed a mouse sepsis model infected with S. aureus. ICR mice were first i.p. inoculated with S. aureus (4×10^6 CFU/mouse), followed by one single i.p. injection of L-HBcARD, D-HBcARD and PBS at two hours post-inoculation, respectively. All mice (n=10) administered with PBS died at day 1. See FIG. 4, A. At 7 days post-inoculation, 40% of mice treated with L-HBcARD (10 mg/kg) survived. See FIG. 4, A. In contrast, D-HBcARD peptide was able to achieve a much higher survival rate (60% for 5 mg/kg dose, and 100% for 10 mg/kg dose).
We compared the in vivo protection efficacy of HBcARD 150-177C peptides (28-mer) containing either D-form or L-form arginines. ICR mice (n=10/group) were ip. inoculated with S. aureus ATCC19636 (4×10^6/mouse), followed by treatment with modified peptides at two hours post-inoculation. All PBS control mice died on day 1, and only 20% of the mice treated with control peptide (150-177Q) survived. Administration of L-150-177C peptide at the dose of 5 and 10 mg/kg protected 30% and 70% mice from death, respectively. When treated with 5 mg/kg of D-150-177C, all mice (100%) survived.
Three-week old male ICR mice (19 to 21 g) were purchased from BioLASCO (Taiwan). To test the in vivo protection efficacy of the HBcARD peptides, all mice were inoculated intraperitoneally with S. aureus ATCC 19636 (4×10^6 CFU/mouse). HBc147-183 (L- or D-HBcARD) or the PBS control was administered intraperitoneally at 2 hours after bacterial inoculation, respectively. Each group contained 10 mice. Mortality was monitored daily for 7 days following the bacterial inoculation.

[7] = tested on: E. coli; assay type: cell-based, Escherichia coli; settings: for Minimal bactericidal concentration: E. coli ATCC 25922
Method: as §1, §2, §3

[8] = 5 mg/kg single i.p. injection 2 hours post-inoculation

## polymyxin B [reference compound]
[1]; 50 mg/kg body weight i.p.
  survival outcome after i.p. injection: died at day one

## RKPRGLEPRRRKVKTTVVYGRRRSKSRERRAPTPQR [Duck HBcARD]
[2]
  Minimal bactericidal concentration: >70.6 mg/L
[3]
  Minimal bactericidal concentration: >70.6 mg/L
[4]
  Minimal bactericidal concentration: 70.6 mg/L

## RKPRGLEPRRRKVKTTVVYGRRRSKSRGRRSSPSQR [Heron HBcARD]
[2]
  Minimal bactericidal concentration: >69.3 mg/L
[3]
  Minimal bactericidal concentration: >69.3 mg/L
[4]
  Minimal bactericidal concentration: 69.3 mg/L

## RRRGRSPRRRTPSPRRRRSQSPRRRRSQ [150-177Q]
[5]; S. aureus ATCC19636, listed as HBcARD 150-177Q
  MBC: no detectable bactericidal activity
[6]; control peptide, dose not given, treatment 2 hours post-inoculation
  survival: 20%

## rRrGRSPrRrTPSPrRrRSQSPrRrRSC ([dR]R[dR]GRSP[dR]R[dR]TPSP[dR]R[dR]RSQSP[dR]R[dR]RSC) [DL-150-177C]
[6]; [8]
  survival (mice protected from death): protected all S. aureus-infected mice from death
[6]
  in vivo protection efficacy, compared between peptides: very similar protection efficacy to all-D-arginine substituted peptide D-150-177C

## TIVRRRGGSRATRSPRRRTPSPRRRRSQSPRRRRSQSPASSNC [Bat HBcARD]
[2]; P. aeruginosa ATCC 9027
  Minimal bactericidal concentration: 10 mg/L
[5]; S. aureus ATCC19636
  Minimal bactericidal concentration: 20 mg/L
[3]; K. pneumoniae ATCC 13884
  Minimal bactericidal concentration: 5 mg/L
[7]
  Minimal bactericidal concentration: 20 mg/L
[4]; A. baumannii ATCC 17978
  Minimal bactericidal concentration: 2.5 mg/L

## RRRRSQSPRRRRSC [164-177C]
[5]; S. aureus ATCC19636
  MBC: none of these peptides showed detectable activity

## RRRGRSPRRRTPSPRRRRSQSPRRRRSC [150-177C]
[2]
  MBC: 2 µM
[5]
  MBC: 2 µM
[5]; S. aureus ATCC19636, listed as HBcARD 150-177C
  MBC: rescued the bactericidal activity
[7]
  MBC: 2 µM
[6]; [8]
  survival (mice protected from death): 30%
[6]; 10 mg/kg single i.p. injection 2 hours post-inoculation
  survival (mice protected from death): 70%

## RrRGRSPRrRTPSPRrRrSQSPRrRrSC (R[dR]RGRSPR[dR]RTPSPR[dR]R[dR]SQSPR[dR]R[dR]SC) [LD-150-177C]
[6]; [8]
  survival (mice protected from death): 80%
[6]
  in vivo protection efficacy, compared between peptides: less than DL-150-177C

## RRRTPSPRRRRSQSPRRRRC [157-176C]
[5]; S. aureus ATCC19636
  MBC: none of these peptides showed detectable activity

## RRRGRSPRRRTPSPRRRRC [150-168C]
[5]; S. aureus ATCC19636
  MBC: none of these peptides showed detectable activity

## TVIRRRGGARASRSPRRRTPSPRRRRSQSPRRRRSQSPSANC [Woodchuck HBcARD]
[2]; P. aeruginosa ATCC 9027
  Minimal bactericidal concentration: 9.8 mg/L
[5]; S. aureus ATCC19636
  Minimal bactericidal concentration: 19.6 mg/L
[3]; K. pneumoniae ATCC 13884
  Minimal bactericidal concentration: 9.8 mg/L
[7]
  Minimal bactericidal concentration: 19.6 mg/L
[4]; A. baumannii ATCC 17978
  Minimal bactericidal concentration: 4.9 mg/L

## rRrGRPrRrPPrRrRQPrRrRC ([dR]R[dR]GRP[dR]R[dR]PP[dR]R[dR]RQP[dR]R[dR]RC) [DL-dST-150-177C]
[6]
  in vivo protection efficacy, compared between peptides: remarkably improved protection efficacy compared to the 28-mers DL-150-177C and L-150-177C

## C[C@@H](O)[C@H](NC(=O)[C@@H](CCCNC(=N)N)NC(=O)[C@@H](CCCNC(=N)N)NC(=O)[C@@H](CCCNC(=N)N)NC(=O)[C@@H]1CCCN1C(=O)[C@H](CO)NC(=O)[C@@H](CCCNC(=N)N)NC(=O)CNC(=O)[C@@H](CCCNC(=N)N)NC(=O)[C@@H](CCCNC(=N)N)NC(=O)[C@H](N)CCCNC(=N)N)C(=O)N1CCC[C@H]1C(=O)N[C@@H](CO)C(=O)N1CCC[C@H]1C(=O)N[C@H](CCCNC(=N)N)C(=O)N[C@H](CCCNC(=N)N)C(=O)N[C@H](CCCNC(=N)N)C(=O)N[C@H](CCCNC(=N)N)C(=O)N[C@@H](CO)C(=O)N[C@@H](CCC(N)=O)C(=O)N[C@@H](CO)C(=O)N1CCC[C@H]1C(=O)N[C@H](CCCNC(=N)N)C(=O)N[C@H](CCCNC(=N)N)C(=O)N[C@H](CCCNC(=N)N)C(=O)N[C@H](CCCNC(=N)N)C(=O)N[C@@H](CO)C(=O)N[C@@H](CS)C(=O)O [D-150-177C, rrrGrSPrrrTPSPrrrrSQSPrrrrSC] (H-[dR][dR][dR]G[dR]SP[dR][dR][dR]TPSP[dR][dR][dR][dR]SQSP[dR][dR][dR][dR]SC-OH; N-terminus and C-terminus assumed)
[1]; 60 mg/kg i.p., monitored 7 days
  survival rate: 80%
[1]; 60 mg/kg, p<0.01
  serum ALT level compared with polymyxin B: significantly higher
[1]; 80 mg/kg i.p., monitored 7 days
  survival rate: 40%
[1]; 20 and 40 mg/kg i.p., monitored 7 days
  acute toxicity: no acute toxicity
[1]; 20 to 40 mg/kg, p value insignificant
  serum ALT level compared with polymyxin B: higher ALT level than polymyxin B

Source: patent US12084479B2, “Modified antimicrobial peptide derived from an arginine-rich domain” (priority 2016, dated 2024)
